Measured values published in ChEMBL document CHEMBL5614412, “Regulation of protein phosphorylation by PTPN2 and its small-molecule inhibitors/degraders as a potential disease treatment strategy” (Eur J Med Chem, 2024).
Each block holds one molecule with its values, some of them ahead of it. Starred links: 1 amine or outer side, 2 acyl side, 3 side chain; linkers in the order of their positions; H or OH if unused. Non-standard residues stand in square brackets, D forms with d. Residues, ends and D or L forms follow the SMILES beside them. ξ: configuration not given here. *: point of attachment. NHCH2(1,3-C6H4)CH2CO = O=C(Cc1cccc(CN[*:1])c1)[*:2]; ξF2Pmp = NC(Cc1ccc(C(F)(F)P(=O)(O)O)cc1)C(=O)O; Benzoyl(3-Br,4-Me) = Cc1ccc(C(=O)*)cc1Br; ξPro(4R-OH) = O=C(O)C1C[C@@H](O)CN1; X2 = Cc1ncsc1-c1ccc([C@H](C)N*)cc1; Tle = CC(C)(C)[C@H](N)C(=O)O; X1 = COc1ccc(CC(=O)*)cc1O

How the values were obtained:
[1] = biological target: T1, Tyrosine-protein phosphatase non-receptor type 2 (Homo sapiens, UniProt P17706); assay: Inhibition of PTPN2 (unknown origin)
T1 sequence (P17706 whole entry): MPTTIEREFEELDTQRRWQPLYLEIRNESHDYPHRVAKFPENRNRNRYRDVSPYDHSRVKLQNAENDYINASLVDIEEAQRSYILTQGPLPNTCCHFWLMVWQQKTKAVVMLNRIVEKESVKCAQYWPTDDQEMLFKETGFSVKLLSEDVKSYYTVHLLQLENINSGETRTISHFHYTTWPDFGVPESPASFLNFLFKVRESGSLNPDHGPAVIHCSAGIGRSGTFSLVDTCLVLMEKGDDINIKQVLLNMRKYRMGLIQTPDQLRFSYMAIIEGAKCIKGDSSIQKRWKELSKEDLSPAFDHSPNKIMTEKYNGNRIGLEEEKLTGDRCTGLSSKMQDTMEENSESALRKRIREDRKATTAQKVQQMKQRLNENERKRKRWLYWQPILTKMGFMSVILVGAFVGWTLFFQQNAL

[2] = biological target: T2, Tyrosine-protein phosphatase non-receptor type 1 (Homo sapiens, UniProt P18031); assay: Inhibition of PTP1B (unknown origin)
T2 sequence (P18031 whole entry): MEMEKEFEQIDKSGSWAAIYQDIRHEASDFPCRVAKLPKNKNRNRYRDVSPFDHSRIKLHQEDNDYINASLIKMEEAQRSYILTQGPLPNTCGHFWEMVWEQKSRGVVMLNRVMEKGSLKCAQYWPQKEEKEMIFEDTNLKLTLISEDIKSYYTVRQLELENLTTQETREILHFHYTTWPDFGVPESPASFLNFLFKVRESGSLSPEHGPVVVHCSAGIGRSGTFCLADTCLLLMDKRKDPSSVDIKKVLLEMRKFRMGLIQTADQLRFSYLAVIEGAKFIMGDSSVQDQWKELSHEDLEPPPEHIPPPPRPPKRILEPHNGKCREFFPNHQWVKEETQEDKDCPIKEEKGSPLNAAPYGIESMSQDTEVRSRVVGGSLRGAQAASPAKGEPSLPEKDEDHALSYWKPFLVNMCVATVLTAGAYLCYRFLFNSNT

B16 = assay: Antiproliferative activity against mouse B16 cells; format: functional, cell-based
[3] = biological target: T1, Tyrosine-protein phosphatase non-receptor type 2
Description: Inhibition of human PTPN2 extracted from Escherichia coli BL21 (DE3) by fluorescence based analysis

[4] = Inhibition of PTP1B/PTPN2 (unknown origin) in mouse B16 cells; format: cell-based, Homo sapiens
[5] = biological target: T1, Tyrosine-protein phosphatase non-receptor type 2; remark: listed apart in the source
Description: Inhibition of full-length human recombinant PTPN2 incubated for 20 mins by mobile shift assay

[6] = biological target: Protein cereblon/Tyrosine-protein phosphatase non-receptor type 2 (Homo sapiens, UniProt P17706+Q96SW2); assay: PROTAC activity at PTPN2/CRBN in HEK293 cells assessed as protein degradation measured for 48 hrs by Western blot analysis; format: cell-based
Homo sapiens = organism: Homo sapiens; assay: Selectivity index, ratio of DC50 for PROTAC activity at PTP1B/CRBN in HEK293 cells to DC50 for PROTAC activity at PTPN2/CRBN in HEK293 cells; format: cell-based
[7] = biological target: Protein cereblon/Tyrosine-protein phosphatase non-receptor type 1 (Homo sapiens, UniProt P18031+Q96SW2); assay: PROTAC activity at PTP1B/CRBN in HEK293 cells assessed as protein degradation measured for 48 hrs by Western blot analysis; format: cell-based
Protein cereblon/Tyrosine-protein phosphatase non-receptor type 1, sequence (Q96SW2 whole entry, one chain of several): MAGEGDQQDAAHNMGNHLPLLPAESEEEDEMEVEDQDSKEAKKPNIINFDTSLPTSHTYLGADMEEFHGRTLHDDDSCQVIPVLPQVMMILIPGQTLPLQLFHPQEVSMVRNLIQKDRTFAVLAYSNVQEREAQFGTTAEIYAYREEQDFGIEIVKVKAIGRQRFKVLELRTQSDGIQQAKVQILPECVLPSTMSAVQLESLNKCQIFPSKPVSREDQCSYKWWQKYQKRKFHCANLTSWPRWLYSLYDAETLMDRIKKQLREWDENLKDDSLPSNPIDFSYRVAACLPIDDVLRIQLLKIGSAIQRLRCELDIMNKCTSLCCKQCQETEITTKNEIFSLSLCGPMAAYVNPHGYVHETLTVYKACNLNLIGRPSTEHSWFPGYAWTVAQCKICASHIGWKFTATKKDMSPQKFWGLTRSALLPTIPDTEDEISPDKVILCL

Protein cereblon/Tyrosine-protein phosphatase non-receptor type 2, sequence (Q96SW2 whole entry, one chain of several): as above

Compound: O=C1CN(c2c(O)cc3c(c2F)C[C@H](NCCCC(F)F)CS3)S(=O)(=O)N1
IC50 [1]: < 10 nM
IC50 [2]: < 10 nM
IC50 (B16): 160 nM

IC50 [3]: 3.9 nM
EC50 [4]: 2650 nM
IC50 [5]: 3.9 nM
Compound: O=C1CN(c2c(O)cc3ccc(NCC4CC4)cc3c2F)S(=O)(=O)N1

Compound: CC[C@@H]1CCN(CCc2cc(O)c(N3CC(=O)NS3(=O)=O)c(F)c2)C1
IC50 (B16): 130 nM

Compound: CC1(C)CCC[C@H](NCc2cc(O)c(N3CC(=O)NS3(=O)=O)c(F)c2)C1
IC50 (B16): 770 nM

Compound: O=C1CN(c2c(O)cc(NC(=O)NC3CCCCC3)cc2F)S(=O)(=O)N1
IC50 [1]: < 5 nM
IC50 (B16): < 5000 nM

DC50 [6]: < 100 nM
Compound: CC1(C)C[C@H](Nc2cccc(-c3sc(C(=O)O)c(OCC(=O)O)c3Cl)c2)CCN1S(=O)(=O)Cc1cccc(NC(=O)N2CCC(c3ccc4c5c(cccc35)C(=O)N4[C@@H]3CCC(=O)NC3=O)CC2)c1

IC50 [1]: 65 nM
Compound: CCc1cc(C[C@H](NC(C)=O)C(=O)NCCCCOc2cccc(O)c2C(=O)OC)ccc1N(C(=O)C(=O)O)c1ccccc1C(=O)O

DC50 [6]: 10 nM
Compound: Cn1c(=O)n(C2CCC(=O)NC2=O)c2ccc(-c3ccc(CC(=O)Nc4ccc5c(F)c(N6CC(=O)NS6(=O)=O)c(O)cc5c4)cc3)cc21 (centres undefined)

IC50 [1]: 7.1 nM
Compound: N#Cc1ccc2cc(Br)c(C(F)(F)P(=O)(O)O)cc2c1

Compound: O=C1CN(c2c(O)cc3c(c2F)C[C@H](NCCC(F)F)N3)S(=O)(=O)N1
IC50 [1]: 10 nM
IC50 [2]: 10 nM
IC50 (B16): 700 nM

Compound: CCc1ccc(C(=O)NCCCC[C@H](NC(=O)[C@H](Cc2ccc(C(F)(F)P(=O)(O)O)cc2)NC(=O)[C@H](Cc2ccccc2)NC(=O)O[C@H]2C[C@@H](C)CC[C@@H]2C(C)C)C(=O)NCCOCCC(=O)Nc2cccc3c2CN(C2CCC(=O)NC2=O)C3=O)cc1 (some centres undefined)
DC50 [6]: 35.8 nM
Selectivity Index (Homo sapiens): > 110

Compound: CC(C)CCNC1CNc2cc(O)c(N3CC(=O)NS3(=O)=O)c(F)c2C1 (centres undefined)
IC50 (B16): 1400 nM

Compound: CC(C)CCN[C@@H]1C[C@H]2C[C@@H]1c1c2cc(O)c(N2CC(=O)NS2(=O)=O)c1F
IC50 (B16): 7820 nM

Compound: COc1ccc(CC(=O)N[C@@H](Cc2ccccc2)C(=O)NC(Cc2ccc(C(F)(F)P(=O)(O)O)cc2)C(=O)N[C@@H](CCCCNC(=O)c2ccc(C)c(Br)c2)C(=O)NCc2cccc(CC(=O)N[C@H](C(=O)N3C[C@H](O)CC3C(=O)N[C@@H](C)c3ccc(-c4scnc4C)cc3)C(C)(C)C)c2)cc1O (stereo partly drawn) (X1-F[ξF2Pmp]K(Benzoyl(3-Br,4-Me))[NHCH2(1,3-C6H4)CH2CO][Tle][ξPro(4R-OH)]-X2)
DC50 [7]: 14.8 nM
DC50 [6]: 7 nM
Selectivity Index (Homo sapiens): 2.1

DC50 [7]: 13100 nM
DC50 [6]: 217 nM
Compound: Cc1ncsc1-c1ccc(C(C)CC(=O)[C@H]2C[C@H](O)CN2C(=O)[C@@H](NC(=O)CCCCCNC(=O)n2cc(-c3ccc4cc(O)c(N5CC(=O)NS5(=O)=O)c(F)c4c3)cn2)C(C)(C)C)cc1 (some centres undefined)
Selectivity Index (Homo sapiens): > 60

Compound: COc1cc(CC(=O)NC(Cc2ccccc2)C(=O)NC(Cc2ccc(C(F)(F)P(=O)(O)O)cc2)C(=O)N[C@@H](CCCCNC(=O)c2ccc(C)c(Br)c2)C(N)=O)ccc1O (some centres undefined)
IC50 [2]: 120 nM

Compound: CC1CCN=C(Nc2cc(O)c(N3CC(=O)NS3(=O)=O)c(F)c2)N1 (centres undefined)
IC50 [1]: 10 nM
IC50 (B16): 5000 nM

Compound: CC(C)CCN[C@@H]1CCc2cc(O)c(N3CC(=O)NS3(=O)=O)c(F)c2C1 [OSUNPROTAFIB]
IC50 [3]: 1.8 nM
EC50 [4]: 180 nM
IC50 [5]: 1.8 nM
IC50 (B16): 64 nM
